From the RepoRT retention time repository (doi:10.1016/j.foodchem.2021.129757)

Tests used:
Conditions in all cases: stereoisomer not certain
[1] = RP, 150 × 2.1 mm, 2.6 µm, 40 °C, 0.35 mL/min, estimated dead time 0.94 min; A: water + 0.1% formic acid, pH 3; B: acetonitrile + 0.1% formic acid, pH 3; gradient (min/%B) 0/0 1/0 12.5/100 14/100 14.2/0 15/0
[2] = RP, 150 × 2.1 mm, 2.6 µm, 40 °C, 0.35 mL/min, estimated dead time 0.94 min; A: water + 0.1% formic acid, pH 3; B: acetonitrile + 0.1% formic acid, pH 3; gradient (min/%B) 0/0 1/5 7/45 8.5/80 10.5/80 11/5 12/5
[3] = RP, Phenomenex Synergi Hydro-RP, 250 × 2 mm, 4 µm, 25 °C, 0.2 mL/min, estimated dead time 2.5 min; A: water + 0.1% formic acid, pH 3; B: acetonitrile + 0.1% formic acid, pH 3; gradient (min/%B) 0/0.5 7/0.5 12/12.5 25/16.3 47/35 48/65 50/65 50.1/0.5
[4] = RP, Waters ACQUITY UPLC BEH C18, 100 × 2.1 mm, 1.7 µm, 65 °C, 0.4 mL/min, estimated dead time 0.55 min; A: water + 0.1% formic acid, pH 3; B: 80% acetonitrile + 20% acetone + 0.1% formic acid, pH 3; gradient (min/%B) 0/0 5/100 5.5/0 6/0
[5] = RP, Agilent ZORBAX RRHD Eclipse Plus C18, 50 × 2.1 mm, 1.8 µm, 30 °C, 0.4 mL/min, estimated dead time 0.28 min; A: water + 0.1% formic acid, pH 3; B: acetonitrile + 0.1% formic acid, pH 3; gradient (min/%B) 0/1 5/10 8/25 9.1/99 10/99 12/99
[6] = RP, Agilent ZORBAX RRHD Eclipse Plus C18, 50 × 2.1 mm, 1.8 µm, 30 °C, 0.4 mL/min, estimated dead time 0.28 min; A: water + 0.1% formic acid, pH 3; B: acetonitrile + 0.1% formic acid, pH 3; gradient (min/%B) 0/1 5/10 8/25 9.1/99 10/99 12/1
[7] = RP, Waters ACQUITY UPLC HSS T3, 100 × 2.1 mm, 1.8 µm, 30 °C, 0.4 mL/min, estimated dead time 0.55 min; A: water + 0.1% formic acid, pH 3; B: acetonitrile + 0.1% formic acid, pH 3; gradient (min/%B) 0/0 2/0 15/100 22/100 22.1/0 26/0
[8] = RP, Agilent ZORBAX Eclipse XDB-C18, 100 × 2.1 mm, 1.8 µm, 50 °C, 0.4 mL/min, estimated dead time 0.55 min; A: water + 0.1% formic acid, pH 3; B: methanol + 0.1% formic acid, pH 3; gradient (min/%B) 0/2 10/100 14.5/100 14.51/2 16.5/2
[9] = RP, Waters ACQUITY UPLC HSS T3, 100 × 2.1 mm, 50 °C; A: water + 0.1% formic acid, pH 3; B: 30% methanol + 70% acetonitrile + 0.1% formic acid, pH 3; gradient (min/%B) 0/5 1/8 2/15 3/40 4/70 4.5/100 5/100 6.4/100 6.6/5 6.8/5 7/5

## O=c1cc(O)c2ccccc2o1 [4-hydroxycoumarin]
[1]
  LC retention time: 6.51 min
[2]
  LC retention time: 6.59 min

## O=C(O)CCc1ccccc1 [3-phenylpropionic acid]
[3]
  LC retention time: 44.5 min
[4]
  LC retention time: 2.78 min

## O=C(O)CNC(=O)c1ccccc1O [2-Hydroxyhippuric acid]
[5]
  LC retention time: 6.69 min
[6]
  LC retention time: 6.83 min
[1]
  LC retention time: 5.5 min
[2]
  LC retention time: 5.38 min

## O=c1ccc2ccc(O)cc2o1 [Umbelliferone]
[7]
  LC retention time: 9.65 min
[1]
  LC retention time: 5.77 min
[2]
  LC retention time: 7.69 min

## Nc1c(O)cccc1C(=O)O [3-Hydroxyanthranilic acid]
[1]
  LC retention time: 3.21 min
[2]
  LC retention time: 2.89 min

## NC(=O)Cc1c[nH]c2ccccc12 [3-Indoleacetamide]
[1]
  LC retention time: 5.28 min
[2]
  LC retention time: 5.15 min

## O=C(O)c1cc2ccccc2[nH]1 [2-Indolecarboxylic acid]
[1]
  LC retention time: 6.06 min
[2]
  LC retention time: 6.07 min

## Cc1cc(=O)oc2cc(O)ccc12 [4-methylumbelliferone]
[1]
  LC retention time: 6.41 min
[2]
  LC retention time: 6.46 min

## O=S(=O)(O)c1[nH]c2ccccc2c1CCO [Tryptophol-2-sulfonate]
[1]
  LC retention time: 4.73 min
[2]
  LC retention time: 4.57 min

## CC(C=CC1(O)C(C)=CC(=O)CC1(C)C)=CC(=O)O (configuration not stated) [Abscisic acid]
[1]
  LC retention time: 6.9 min
[2]
  LC retention time: 7.12 min

## O=C(O)CCc1c[nH]c2ccccc12 [3-Indolepropionic acid]
[8]
  LC retention time: 5.54 min
[9]
  LC retention time: 3.76 min
[1]
  LC retention time: 7.09 min
[2]
  LC retention time: 7.34 min
[4]
  LC retention time: 2.64 min

## CCC=CCC1C(=O)CCC1CC(=O)OC (configuration not stated) [Methyl jasmonate]
[8]
  LC retention time: 7.77 min
[1]
  LC retention time: 7.64 min
[2]
  LC retention time: 7.97 min

## O=C(O)CC(O)(CC(=O)O)C(=O)O [Citric acid]
[8]
  LC retention time: 1.09 min
[3]
  LC retention time: 6.32 min
[9]
  LC retention time: 0.67 min

## OCCc1c[nH]c2ccccc12 [Tryptophol]
[1]
  LC retention time: 6.45 min
[2]
  LC retention time: 6.48 min

## O=C(O)C1(O)CC(O)C(O)C(O)C1 (configuration not stated) [Quinic acid]
[3]
  LC retention time: 3.21 min
[9]
  LC retention time: 0.58 min
[7]
  LC retention time: 1.05 min

## O=c1ccc2cc(OC3OC(CO)C(O)C(O)C3O)c(O)cc2o1 (configuration not stated) [Esculin]
[1]
  LC retention time: 4.11 min
[2]
  LC retention time: 3.94 min

## O=C(NC(O)C(=O)O)c1ccccc1 (stereo not drawn) [Alpha-hydroxyhippuric acid]
[5]
  LC retention time: 1.37 min
[6]
  LC retention time: 2.97 min
[1]
  LC retention time: 3.62 min
[2]
  LC retention time: 3.34 min

## COc1ccc2[nH]cc(CCNC(C)=O)c2c1 [Melatonin]
[1]
  LC retention time: 6.29 min
[2]
  LC retention time: 6.35 min

## CC(=O)NCCc1c[nH]c2ccc(O)cc12 [N-acetylserotonin]
[1]
  LC retention time: 4.69 min
[2]
  LC retention time: 4.5 min

## O=c1c(O)c(-c2ccc(OC3OC(CO)C(O)C(O)C3O)c(O)c2)oc2cc(O)cc(O)c12 (configuration not stated) [Quercetin 4-glucoside]
[2]
  LC retention time: 6.25 min

## O=c1cc(-c2ccc(O)c(O)c2)oc2c(C3OC(CO)C(O)C(O)C3O)c(O)cc(O)c12 (configuration not stated) [Orientin]
[1]
  LC retention time: 5.3 min
[2]
  LC retention time: 5.29 min
